The values that follow come from patent publication US12653809B2, “Urea, amide, and substituted heteroaryl compounds for CBL-B inhibition” (Nurix Therapeutics, Inc., priority 2019, dated 2026).

Where two headings read alike, the source gives them in different places.

For the test, the target named is T1, Cbl-b (truncated variant, UniProt number Q13191) (Homo sapiens, UniProt Q13191).
T1 construct: made in house
As to the kind of experiment: Cbl-b activity assay (TR-FRET, interaction of Cbl-b with UbcH5B-Ub). The format is biochemical. Background: Time-resolved FRET reads energy transfer from a long-lived donor to a nearby acceptor.

Where [1] appears, read: high conditions: 100 mM NaCl, 60 nM Src kinase, 12 nM Cbl-b, read-out: Cbl-b activity IC50.
Setting [2] is: Biological Example 1A, low or high conditions not stated, read-out: IC50 values in the Cbl-b inhibition assay of Biological Example 1A.

T1 sequence (Q13191 36-427): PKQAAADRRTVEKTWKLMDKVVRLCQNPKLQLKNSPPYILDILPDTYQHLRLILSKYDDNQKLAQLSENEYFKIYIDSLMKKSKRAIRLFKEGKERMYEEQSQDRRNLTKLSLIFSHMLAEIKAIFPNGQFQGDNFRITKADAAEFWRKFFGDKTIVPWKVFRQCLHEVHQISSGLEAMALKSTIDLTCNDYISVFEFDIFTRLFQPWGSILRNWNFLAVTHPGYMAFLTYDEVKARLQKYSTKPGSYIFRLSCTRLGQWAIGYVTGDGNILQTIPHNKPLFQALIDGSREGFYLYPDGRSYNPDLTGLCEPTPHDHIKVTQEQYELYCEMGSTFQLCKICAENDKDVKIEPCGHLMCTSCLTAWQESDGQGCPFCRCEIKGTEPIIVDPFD

What is called IC50 is the concentration that inhibits the measured activity by half. On to `C[C@H](Sc1nncn1C)c1cccc(NC(=O)N2CCCC2)c1` [Example 151, N-[3-[(1S)-1-[(4-methyl-4H-1,2,4-triazol-3-yl)sulfanyl]ethyl]phenyl]pyrrolidine-1-carboxamide], for which the IC50 under setting [1] was at least 5 µM. Take `C[C@H](Sc1nncn1C)c1cccc(-n2ncc(-c3ccc(C(N)=O)cc3)n2)c1` [Example 86, (S)-4-(2-(3-(1-(4-methyl-4H-1,2,4-triazol-3-ylthio)ethyl)phenyl)-2H-1,2,3-triazol-4-yl)benzamide]: the half-inhibitory concentration (IC50) under setting [2] fell in the range of 1 to 5 µM and the half-maximal inhibitory concentration (IC50) under setting [1] was in the range of 1 to 5 µM. `C[C@H](Sc1nncn1C)c1cccc(NC(=O)NC2CCCN(c3cccnn3)C2)c1` (stereo partly drawn) [Example 129, 1-(3-((S)-1-((4-methyl-4H-1,2,4-triazol-3-yl)thio)ethyl)phenyl)-3-(1-(pyridazin-3-yl)piperidin-3-yl)urea]: the IC50 under setting [1] was at least 5 µM. With `C[C@H](Sc1nncn1C)c1cccc(-n2cc(-c3cccc(C(=O)O)c3)nn2)c1` [Example 91, (S)-3-(1-(3-(1-(4-methyl-4H-1,2,4-triazol-3-ylthio)ethyl)phenyl)-1H-1,2,3-triazol-4-yl)benzoic acid], the IC50 reads like this: under setting [2], at least 5 µM; under setting [1], at least 5 µM.

Regarding `C[C@H](Sc1nncn1C)c1cccc(NC(=O)Nc2ccc(N3CCOCC3=O)cc2)c1` [Example 147, (S)-1-(3-(1-(4-methyl-4H-1,2,4-triazol-3-ylthio)ethyl)phenyl)-3-(4-(3-oxomorpholino)phenyl)urea], under setting [1], the IC50 is at least 5 µM.

Turning to `C[C@H](Sc1nncn1C)c1cccc(NC(=O)Nc2cccc(C(F)(F)F)n2)c1` [Example 3, (S)-1-(3-(1-((4-methyl-4H-1,2,4-triazol-3-yl)thio)ethyl)phenyl)-3-(6-(trifluoromethyl)pyridin-2-yl)urea], the IC50 is 0.1 to 1 µM under setting [2] and 0.1 to 1 µM under setting [1]. With `C[C@H](Cc1nncn1C)c1cccc(-c2n[nH]c3c(N4CCC(O)CC4)cc(C(F)(F)F)nc23)c1` [Example 109, (R)-1-(3-(3-(1-(4-methyl-4H-1,2,4-triazol-3-yl)propan-2-yl)phenyl)-5-(trifluoromethyl)-1H-pyrazolo[4,3-b]pyridin-7-yl)piperidin-4-ol], the IC50 under setting [1] lay in the range of 0.1 to 1 µM. Take `COc1ccc(-c2cc(-c3cccc([C@H](C)Sc4nncn4C)c3)on2)cc1` [Example 59, (S)-3-(4-methoxyphenyl)-5-(3-(1-((4-methyl-4H-1,2,4-triazol-3-yl)thio)ethyl)phenyl)isoxazole]: the IC50 under setting [1] lay within 1 to 5 µM. Regarding `CNC(=O)C1(C(F)(F)F)CCN(C(=O)Nc2cccc([C@H](C)Sc3nncn3C)c2)C1` (stereo partly drawn) [Example 50, N^3-methyl-N^1-(3-((S)-1-((4-methyl-4H-1,2,4-triazol-3-yl)thio)ethyl)phenyl)-3-(trifluoromethyl)pyrrolidine-1,3-dicarboxamide], the IC50 by setting is: under setting [2], 1 to 5 µM; under setting [1], 1 to 5 µM. As for `C[C@H](Sc1nncn1C)c1cccc(NC(=O)N2CC3CCCC3C2)c1` (stereo partly drawn) [Example 40, N-(3-((S)-1-((4-methyl-4H-1,2,4-triazol-3-yl)thio)ethyl)phenyl)hexahydrocyclopenta[c]pyrrole-2(1H)-carboxamide], the IC50 was 1 to 5 µM under setting [2] and 1 to 5 µM under setting [1]. In the case of `CNS(=O)(=O)c1cc(NC(=O)Nc2cccc([C@H](C)Sc3nncn3C)c2)ccc1C` [Example 144, (S)—N,2-dimethyl-5-(3-(3-(1-((4-methyl-4H-1,2,4-triazol-3-yl)thio)ethyl)phenyl)ureido)benzenesulfonamide], the IC50 under setting [1] is at least 5 µM. Same read-out and setting: to `C[C@H](Sc1nncn1C)c1cccc(NC(=O)NC2CCCCC2)c1` [Example 161, (S)-1-cyclohexyl-3-(3-(1-((4-methyl-4H-1,2,4-triazol-3-yl)thio)ethyl)phenyl)urea] belongs at least 5 µM; to `Cc1ccc(-c2cc(-c3cccc([C@H](C)Sc4nncn4C)c3)on2)cc1` [Example 55, (S)-5-(3-(1-(4-methyl-4H-1,2,4-triazol-3-ylthio)ethyl)phenyl)-3-p-tolylisoxazole], 1 to 5 µM. With `C[C@H](Cc1nncn1C)c1cccc(-c2n[nH]c3ccc(C(F)(F)F)nc23)c1` [Example 116, (R)-3-(3-(1-(4-methyl-4H-1,2,4-triazol-3-yl)propan-2-yl)phenyl)-5-(trifluoromethyl)-1H-pyrazolo[4,3-b]pyridine], the IC50 under setting [2] was 0.1 to 1 µM and the IC50 under setting [1] is 0.1 to 1 µM. For `Cc1cnnc(NC(=O)Nc2cccc([C@H](C)Sc3nncn3C)c2)c1` [Example 39, (S)-1-(3-(1-((4-methyl-4H-1,2,4-triazol-3-yl)thio)ethyl)phenyl)-3-(5-methylpyridazin-3-yl)urea], the IC50 reads like this: under setting [2], 1 to 5 µM; under setting [1], 1 to 5 µM. In the case of `C[C@H](Cc1nncn1C)c1cccc(NC(=O)N2CC(C)(C)Oc3cccnc32)c1` [Example 19, (R)-2,2-dimethyl-N-(3-(1-(4-methyl-4H-1,2,4-triazol-3-yl)propan-2-yl)phenyl)-2,3-dihydro-4H-pyrido[3,2-b][1,4]oxazine-4-carboxamide], the IC50 by setting is: under setting [2], under 0.1 µM; under setting [1], under 0.1 µM. Take `Cn1cnnc1[C@@H]1C[C@@H]1c1cccc(NC(=O)N2CCOc3cccnc32)c1` [Example 25, N-(3-((1S,2R)-2-(4-methyl-4H-1,2,4-triazol-3-yl)cyclopropyl)phenyl)-2,3-dihydro-4H-pyrido[3,2-b][1,4]oxazine-4-carboxamide]: the IC50 under setting [1] was 0.1 to 1 µM. For the compound `CC(=O)N1CCC2(CCN(C(=O)Nc3cccc([C@H](C)Sc4nncn4C)c3)CC2)C1` [Example 160, (S)-2-acetyl-N-(3-(1-((4-methyl-4H-1,2,4-triazol-3-yl)thio)ethyl)phenyl)-2,8-diazaspiro[4.5]decane-8-carboxamide], the IC50 under setting [1] is at least 5 µM. On to `CC(=O)N1CCN(C(=O)Nc2cccc([C@H](C)Sc3nncn3C)c2)CC1` [Example 162, (S)-4-acetyl-N-(3-(1-(4-methyl-4H-1,2,4-triazol-3-ylthio)ethyl)phenyl)piperazine-1-carboxamide], for which the IC50 under setting [1] was at least 5 µM. On to `C[C@H](Sc1nncn1C)c1cccc(-c2n[nH]c3ccccc23)c1` [Example 107, (S)-3-(3-(1-((4-methyl-4H-1,2,4-triazol-3-yl)thio)ethyl)phenyl)-1H-indazole], for which the IC50 under setting [1] was in the range of 0.1 to 1 µM. In the case of `C[C@H](Sc1nncn1C)c1cccc(NC(=O)N2Cc3nccnc3C2)c1` [Example 145, (S)—N-(3-(1-((4-methyl-4H-1,2,4-triazol-3-yl)thio)ethyl)phenyl)-5,7-dihydro-6H-pyrrolo[3,4-b]pyrazine-6-carboxamide], the IC50 under setting [1] is at least 5 µM.

As to `CC(Sc1nncn1C)c1cccc(-c2cc(-c3ccccn3)no2)c1` (stereo not drawn) [Example 70, 5-(3-(1-((4-methyl-4H-1,2,4-triazol-3-yl)thio)ethyl)phenyl)-3-(pyridin-2-yl)isoxazole], the IC50 runs as follows: under setting [2], at least 5 µM; under setting [1], at least 5 µM.

As to `C[C@H](Sc1nncn1C)c1cccc(-n2cc(-c3ccc(CO)cc3)nn2)c1` [Example 85, (S)-(4-(1-(3-(1-(4-methyl-4H-1,2,4-triazol-3-ylthio)ethyl)phenyl)-1H-1,2,3-triazol-4-yl)phenyl)methanol], the IC50 under setting [2] was at least 5 µM and the IC50 under setting [1] is at least 5 µM.

Consider `C[C@H](Sc1nncn1C)c1cccc(C(=O)Nc2cc(C(F)(F)F)ccn2)c1` [Example 36, (S)-3-(1-((4-methyl-4H-1,2,4-triazol-3-yl)thio)ethyl)-N-(4-(trifluoromethyl)pyridin-2-yl)benzamide], for which the IC50 under setting [2] lay within 1 to 5 µM and the IC50 under setting [1] was 1 to 5 µM. For `C[C@H](Sc1nncn1C)c1cccc(NC(=O)N2CC(C(=O)N3CCC(O)C3)C2)c1` (stereo partly drawn) [Example 153, 3-(3-hydroxypyrrolidine-1-carbonyl)-N-(3-((S)-1-((4-methyl-4H-1,2,4-triazol-3-yl)thio)ethyl)phenyl)azetidine-1-carboxamide], the half-inhibitory concentration (IC50) under setting [1] was at least 5 µM. On to `C[C@H](Sc1nncn1C)c1cccc(-n2ncc(-c3ccc(Cl)cc3)n2)c1` [Example 72, (S)-4-(4-chlorophenyl)-2-(3-(1-((4-methyl-4H-1,2,4-triazol-3-yl)thio)ethyl)phenyl)-2H-1,2,3-triazole], for which the IC50 under setting [2] was 1 to 5 µM and the IC50 under setting [1] fell in the range of 1 to 5 µM. Turning to `C[C@H](Cc1nncn1C)c1cccc(NC(=O)N2C[C@H](CO)[C@@H](C)C2)c1` (relative stereo) [Example 17, (3R*,4R*)-3-(hydroxymethyl)-4-methyl-N-(3-((R)-1-(4-methyl-4H-1,2,4-triazol-3-yl)propan-2-yl)phenyl)pyrrolidine-1-carboxamide], the IC50 under setting [2] lay within 1 to 5 µM and the IC50 under setting [1] was 1 to 5 µM. Consider `C[C@H](Sc1nncn1C)c1cccc(-n2cc(-c3cccc(C(N)=O)c3)nn2)c1` [Example 96, (S)-3-(1-(3-(1-(4-methyl-4H-1,2,4-triazol-3-ylthio)ethyl)phenyl)-1H-1,2,3-triazol-4-yl)benzamide], for which the IC50 was in the range of 1 to 5 µM under setting [2] and 1 to 5 µM under setting [1].

For the compound `CNC(=O)c1cccc(-c2cn(-c3cccc([C@H](C)Sc4nncn4C)c3)nn2)c1` [Example 94, (S)—N-methyl-3-(1-(3-(1-(4-methyl-4H-1,2,4-triazol-3-ylthio)ethyl)phenyl)-1H-1,2,3-triazol-4-yl)benzamide], the IC50 is at least 5 µM under setting [2] and at least 5 µM under setting [1]. In the case of `COc1cccc(-c2cnn(-c3cccc([C@H](C)Sc4nncn4C)c3)n2)c1` [Example 76, (S)-4-(3-methoxyphenyl)-2-(3-(1-((4-methyl-4H-1,2,4-triazol-3-yl)thio)ethyl)phenyl)-2H-1,2,3-triazole], under setting [1], the IC50 lay in the range of 1 to 5 µM.

`C[C@H](Sc1nncn1C)c1cccc(NC(=O)N2Cc3cnn(C)c3C2)c1` [Example 46, (S)-1-methyl-N-(3-(1-((4-methyl-4H-1,2,4-triazol-3-yl)thio)ethyl)phenyl)-4,6-dihydropyrrolo[3,4-c]pyrazole-5(1H)-carboxamide]: the IC50 by setting is: under setting [2], 1 to 5 µM; under setting [1], 1 to 5 µM.

Regarding `C[C@H](Sc1nncn1C)c1cccc(NC(=O)N2CCC2c2ccccc2)c1` (stereo partly drawn) [Example 142, N-(3-((S)-1-((4-methyl-4H-1,2,4-triazol-3-yl)thio)ethyl)phenyl)-2-phenylazetidine-1-carboxamide], the IC50 under setting [1] was at least 5 µM.
